Starred links: 1 amine or outer side, 2 acyl side, 3 side chain; linkers in the order of their positions; H or OH if unused. Positions of bridges follow the written chain, without caps; N, C: chain ends. Non-standard residues stand in square brackets, D forms with d. Residues, ends and D or L forms follow the SMILES beside them. *: point of attachment. Ala(piperidin-4-yl) = O=C([C@H](CC1CCN([*:3])CC1)N[*:1])[*:2]; DOTA = O=C(O)CN1CCN(CC(=O)O)CCN(CC(=O)*)CCN(CC(=O)O)CC1; PEG8 = NCCOCCOCCOCCOCCOCCOCCOCCOCCC(=O)O; Aad = N[C@@H](CCCC(=O)O)C(=O)O; Cha = N[C@@H](CC1CCCCC1)C(=O)O; Nle = CCCC[C@H](N)C(=O)O; Orn = NCCC[C@H](N)C(=O)O; Abu = CC[C@H](N)C(=O)O
These compounds were tested against T1, human 4lg B7-H3 (Homo sapiens, UniProt Q5ZPR3) (assay: Affinity determination by surface plasmon resonance (SPR) to 4Ig B7-H3). Details: SPR KD—25° C., 4Ig B7-H3; 25° C. flow cell temperature.
T1 sequence (Q5ZPR3 29-534): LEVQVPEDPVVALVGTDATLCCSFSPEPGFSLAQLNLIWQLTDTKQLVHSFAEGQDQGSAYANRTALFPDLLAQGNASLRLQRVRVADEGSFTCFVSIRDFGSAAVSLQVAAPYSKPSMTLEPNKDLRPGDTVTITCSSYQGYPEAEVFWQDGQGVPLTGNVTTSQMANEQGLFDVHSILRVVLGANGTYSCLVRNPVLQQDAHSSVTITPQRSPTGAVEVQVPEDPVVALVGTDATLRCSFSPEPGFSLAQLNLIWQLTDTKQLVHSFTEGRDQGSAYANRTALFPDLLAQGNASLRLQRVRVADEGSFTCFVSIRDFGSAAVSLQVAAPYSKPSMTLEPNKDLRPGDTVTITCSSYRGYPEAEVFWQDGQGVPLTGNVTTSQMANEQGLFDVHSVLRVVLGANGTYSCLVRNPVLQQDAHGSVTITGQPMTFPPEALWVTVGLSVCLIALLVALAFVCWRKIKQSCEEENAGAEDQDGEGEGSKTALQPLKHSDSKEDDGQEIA

Row | Compound | Kd [nM]
1 | CCCC[C@H](NC(C)=O)C(=O)N[C@@H](Cc1ccc(O)cc1)C(=O)N[C@H]1CSSC[C@@H](C(=O)N[C@@H](Cc2c[nH]c3ccccc23)C(=O)N[C@@H](Cc2ccccc2)C(=O)N[C@H](C(=O)N[C@H](CCCCNC(=O)CN2CCN(CC(=O)O)CCN(CC(=O)O)CCN(CC(=O)O)CC2)C(N)=O)[C@@H](C)O)NC(=O)[C@H](Cc2ccc(O)cc2)NC(=O)[C@H](C(C)C)NC(=O)[C@H](CO)NC(=O)[C@H](Cc2ccc(O)cc2)NC(=O)[C@H](CCCCN)NC(=O)CNC(=O)[C@H](C(C)C)NC1=O [compound 81, Ac-Nle-Y-C-V-G-K-Y-S-V-Y-C-W-F-Thr-dLys(DOTA)-CONH2] (Ac-[Nle]YCVGKYSVYCWFT[dK](DOTA)-NH2; disulfide 3-11) | 100 to 300
2 | CCCC[C@H](NC(C)=O)C(=O)N[C@@H](Cc1ccc(O)cc1)C(=O)N[C@H]1CSSC[C@@H](C(=O)N[C@@H](Cc2c[nH]c3ccccc23)C(=O)N[C@@H](CC2CCCCC2)C(=O)N[C@H](C(=O)N[C@H](CCCCNC(=O)CN2CCN(CC(=O)O)CCN(CC(=O)O)CCN(CC(=O)O)CC2)C(N)=O)[C@@H](C)O)NC(=O)[C@H](Cc2ccc(O)cc2)NC(=O)[C@H](C(C)C)NC(=O)[C@H](CC(=O)O)NC(=O)[C@H](Cc2ccc(O)cc2)NC(=O)[C@H](CCCCN)NC(=O)CNC(=O)[C@H](C(C)C)NC1=O [compound 82, Ac-Nle-Y-C-V-G-K-Y-D-V-Y-C-W-ChA-Thr-dLys(DOTA)-CONH2] (Ac-[Nle]YCVGKYDVYCW[Cha]T[dK](DOTA)-NH2; disulfide 3-11) | 100 to 300
3 | CCCC[C@H](NC(C)=O)C(=O)N[C@@H](Cc1ccc(O)cc1)C(=O)N[C@H]1CSSC[C@@H](C(=O)N[C@@H](Cc2c[nH]c3ccccc23)C(=O)N[C@@H](Cc2ccccc2)C(=O)N[C@H](C(=O)N[C@H](CCCCNC(=O)CN2CCN(CC(=O)O)CCN(CC(=O)O)CCN(CC(=O)O)CC2)C(N)=O)[C@@H](C)O)NC(=O)[C@H](Cc2ccc(O)cc2)NC(=O)[C@H](C(C)C)NC(=O)[C@H](CC(=O)O)NC(=O)[C@H](Cc2ccc(O)cc2)NC(=O)[C@H](CCCNC(=N)N)NC(=O)CNC(=O)[C@H](C(C)C)NC1=O [compound 85, Ac-Nle-Y-C-V-G-Arg-Y-D-V-Y-C-W-F-Thr-dLys(DOTA)-CONH2] (Ac-[Nle]YCVGRYDVYCWFT[dK](DOTA)-NH2; disulfide 3-11) | 1 to 10
4 | CCCC[C@H](NC(=O)CCOCCOCCOCCOCCOCCOCCOCCOCCNC(=O)CN1CCN(CC(=O)O)CCN(CC(=O)O)CCN(CC(=O)O)CC1)C(=O)N[C@@H](Cc1ccc(O)cc1)C(=O)N[C@H]1CSSC[C@@H](C(=O)N[C@@H](Cc2c[nH]c3ccccc23)C(=O)N[C@@H](Cc2ccccc2)C(=O)N[C@H](C(N)=O)[C@@H](C)O)NC(=O)[C@H](Cc2ccc(O)cc2)NC(=O)[C@H](C(C)C)NC(=O)[C@H](CC(=O)O)NC(=O)[C@H](Cc2ccc(O)cc2)NC(=O)[C@H](CCCCN)NC(=O)CNC(=O)[C@H](C(C)C)NC1=O [compound 94, DOTA-PEG8-Nle-Y-C-V-G-K-Y-D-V-Y-C-W-F-Thr-CONH2] ({DOTA-PEG8}-[Nle]YCVGKYDVYCWFT-NH2; disulfide 3-11) | 10 to 100
5 | CCCC[C@H](NC(C)=O)C(=O)N[C@@H](Cc1ccc(O)cc1)C(=O)N[C@H]1CSSC[C@@H](C(=O)N[C@@H](Cc2c[nH]c3ccccc23)C(=O)N[C@@H](Cc2ccccc2)C(=O)N[C@H](C(=O)N[C@H](CCCCNC(=O)CN2CCN(CC(=O)O)CCN(CC(=O)O)CCN(CC(=O)O)CC2)C(N)=O)[C@@H](C)O)NC(=O)[C@H](Cc2ccc(O)cc2)NC(=O)[C@H](CC)NC(=O)[C@H](CC(=O)O)NC(=O)[C@H](Cc2ccc(O)cc2)NC(=O)[C@H](CCCCN)NC(=O)CNC(=O)[C@H](C(C)C)NC1=O [compound 96, Ac-Nle-Y-C-V-G-K-Y-D-Abu-Y-C-W-F-Thr-dLys(DOTA)-CONH2] (Ac-[Nle]YCVGKYD[Abu]YCWFT[dK](DOTA)-NH2; disulfide 3-11) | 10 to 100
6 | CCCC[C@H](NC(C)=O)C(=O)N[C@@H](Cc1ccc(O)cc1)C(=O)N[C@H]1CSSC[C@@H](C(=O)N[C@@H](Cc2c[nH]c3ccccc23)C(=O)N[C@@H](Cc2ccccc2)C(=O)N[C@H](C(=O)N[C@H](CCCCNC(=O)CN2CCN(CC(=O)O)CCN(CC(=O)O)CCN(CC(=O)O)CC2)C(=O)O)[C@@H](C)O)NC(=O)[C@H](Cc2ccc(O)cc2)NC(=O)[C@H](C(C)C)NC(=O)[C@H](CCCC(=O)O)NC(=O)[C@H](Cc2ccc(O)cc2)NC(=O)[C@H](CCCCN)NC(=O)CNC(=O)[C@H](C(C)C)NC1=O [compound 102, Ac-Nle-Y-C-V-G-K-Y-HomoGlu-V-Y-C-W-F-Thr-dLys(DOTA)-COOH] (Ac-[Nle]YCVGKY[Aad]VYCWFT[dK](DOTA)-OH; disulfide 3-11) | 100 to 300
7 | CCCC[C@H](NC(C)=O)C(=O)N[C@@H](Cc1ccc(O)cc1)C(=O)N[C@H]1CSSC[C@@H](C(=O)N[C@@H](Cc2c[nH]c3ccccc23)C(=O)N[C@@H](Cc2ccccc2)C(=O)N[C@H](C(=O)N[C@H](CCCCNC(=O)CN2CCN(CC(=O)O)CCN(CC(=O)O)CCN(CC(=O)O)CC2)C(=O)O)[C@@H](C)O)NC(=O)[C@H](Cc2ccc(O)cc2)NC(=O)[C@H](C(C)C)NC(=O)[C@H](CC(=O)O)NC(=O)[C@H](Cc2ccc(O)cc2)NC(=O)[C@H](CCCC(=O)O)NC(=O)CNC(=O)[C@H](C(C)C)NC1=O [compound 103, Ac-Nle-Y-C-V-G-HomoGlu-Y-D-V-Y-C-W-F-Thr-dLys(DOTA)-COOH] (Ac-[Nle]YCVG[Aad]YDVYCWFT[dK](DOTA)-OH; disulfide 3-11) | 10 to 100

Results, then the compound that gave them:

Row | Kd [nM] | Compound
8 | 10 to 100 | CCCC[C@H](NC(C)=O)C(=O)N[C@@H](Cc1ccc(O)cc1)C(=O)N[C@H]1CSSC[C@@H](C(=O)N[C@@H](Cc2c[nH]c3ccccc23)C(=O)N[C@@H](Cc2ccccc2)C(=O)N[C@H](C(=O)N[C@H](CCCCNC(=O)CN2CCN(CC(=O)O)CCN(CC(=O)O)CCN(CC(=O)O)CC2)C(N)=O)[C@@H](C)O)NC(=O)[C@H](Cc2ccc(O)cc2)NC(=O)[C@H](C(C)C)NC(=O)[C@H](CC(N)=O)NC(=O)[C@H](Cc2ccc(O)cc2)NC(=O)[C@H](CCCCN)NC(=O)CNC(=O)[C@H](C(C)C)NC1=O [compound 80, Ac-Nle-Y-C-V-G-K-Y-N-V-Y-C-W-F-Thr-dLys(DOTA)-CONH2] (Ac-[Nle]YCVGKYNVYCWFT[dK](DOTA)-NH2; disulfide 3-11)
9 | 10 to 100 | CCCC[C@H](NC(C)=O)C(=O)N[C@@H](Cc1ccc(O)cc1)C(=O)N[C@H]1CSSC[C@@H](C(=O)N[C@@H](Cc2c[nH]c3ccccc23)C(=O)N[C@@H](Cc2ccccc2)C(=O)N[C@@H](CCCCN)C(=O)N[C@H](CCCCNC(=O)CN2CCN(CC(=O)O)CCN(CC(=O)O)CCN(CC(=O)O)CC2)C(N)=O)NC(=O)[C@H](Cc2ccc(O)cc2)NC(=O)[C@H](C(C)C)NC(=O)[C@H](CC(=O)O)NC(=O)[C@H](Cc2ccc(O)cc2)NC(=O)[C@H](CCCCN)NC(=O)CNC(=O)[C@H](C(C)C)NC1=O [compound 86, Ac-Nle-Y-C-V-G-K-Y-D-V-Y-C-W-F-Lys-dLys(DOTA)-CONH2] (Ac-[Nle]YCVGKYDVYCWFK[dK](DOTA)-NH2; disulfide 3-11)
10 | 10 to 100 | CCCC[C@H](NC(C)=O)C(=O)N[C@@H](Cc1ccc(O)cc1)C(=O)N[C@H]1CSSC[C@@H](C(=O)N[C@@H](Cc2c[nH]c3ccccc23)C(=O)N[C@@H](Cc2ccccc2)C(=O)N[C@@H](CCCN)C(=O)N[C@H](CCCCNC(=O)CN2CCN(CC(=O)O)CCN(CC(=O)O)CCN(CC(=O)O)CC2)C(N)=O)NC(=O)[C@H](Cc2ccc(O)cc2)NC(=O)[C@H](C(C)C)NC(=O)[C@H](CC(=O)O)NC(=O)[C@H](Cc2ccc(O)cc2)NC(=O)[C@H](CCCCN)NC(=O)CNC(=O)[C@H](C(C)C)NC1=O [compound 87, Ac-Nle-Y-C-V-G-K-Y-D-V-Y-C-W-F-Orn-dLys(DOTA)-CONH2] (Ac-[Nle]YCVGKYDVYCWF[Orn][dK](DOTA)-NH2; disulfide 3-11)
11 | 10 to 100 | CCCC[C@H](NC(C)=O)C(=O)N[C@@H](Cc1ccc(O)cc1)C(=O)N[C@H]1CSSC[C@@H](C(=O)N[C@@H](Cc2c[nH]c3ccccc23)C(=O)N[C@@H](Cc2ccccc2)C(=O)N[C@@H](CC2CCNCC2)C(=O)N[C@H](CCCCNC(=O)CN2CCN(CC(=O)O)CCN(CC(=O)O)CCN(CC(=O)O)CC2)C(N)=O)NC(=O)[C@H](Cc2ccc(O)cc2)NC(=O)[C@H](C(C)C)NC(=O)[C@H](CC(=O)O)NC(=O)[C@H](Cc2ccc(O)cc2)NC(=O)[C@H](CCCCN)NC(=O)CNC(=O)[C@H](C(C)C)NC1=O [compound 89, Ac-Nle-Y-C-V-G-K-Y-D-V-Y-C-W-F-4PipAla-dLys(DOTA)-CONH2] (Ac-[Nle]YCVGKYDVYCWF[Ala(piperidin-4-yl)][dK](DOTA)-NH2; disulfide 3-11)
12 | 1 to 10 | CCCC[C@H](NC(C)=O)C(=O)N[C@@H](Cc1ccc(O)cc1)C(=O)N[C@H]1CSSC[C@@H](C(=O)N[C@@H](Cc2c[nH]c3ccccc23)C(=O)N[C@@H](Cc2ccccc2)C(=O)N[C@@H](CO)C(=O)N[C@H](CCCCNC(=O)CN2CCN(CC(=O)O)CCN(CC(=O)O)CCN(CC(=O)O)CC2)C(N)=O)NC(=O)[C@H](Cc2ccc(O)cc2)NC(=O)[C@H](C(C)C)NC(=O)[C@H](CC(=O)O)NC(=O)[C@H](Cc2ccc(O)cc2)NC(=O)[C@H](CCCCN)NC(=O)CNC(=O)[C@H](C(C)C)NC1=O [compound 92, Ac-Nle-Y-C-V-G-K-Y-D-V-Y-C-W-F-Ser-dLys(DOTA)-CONH2] (Ac-[Nle]YCVGKYDVYCWFS[dK](DOTA)-NH2; disulfide 3-11)

— patent US20250296959A1, “B7-H3 TARGETING PEPTIDES AND CONSTRUCTS THEREOF” (Mariana Oncology Inc., priority 2024, published 2025)
